Measurements: patent US20240216281A1, “MANUFACTURING METHOD OF MEDICATION” (YUNG SHIN PHARM. IND. CO., LTD., priority 2022, published 2024)

Assay: particle size distribution (PSD) of crystals within the medication
Assay type: physicochemical
Settings: first embodiment: dry powder filling technology

10% of the crystals having a particle size (D10) of less than	50% of the crystals having a particle size (D50) of less than	90% of the crystals having a particle size (D90) of less than	90% of the crystals having a particle size (D90) of less than (unit not given)	Compound
less than 0.648 μm	less than 14.061 μm	less than 215.136 μm		OCc1ccc(-c2nn(Cc3ccccc3)c3ccccc23)o1 [YC-1 compound]
less than 4.444 μm	less than 11.189 μm		less than 30.504	CC1(C)O[C@@H]2C[C@H]3[C@@H]4CCC5=CC(=O)C=C[C@]5(C)[C@@]4(F)[C@@H](O)C[C@]3(C)[C@]2(C(=O)CO)O1 [triamcinolone acetonide]
